Results from patent publication US20200190081A1, “META SUBSTITUTED PHENYLPYRAZOLO- AND PHENYLPYRROLO- PYRIDAZINE DERIVATIVES HAVING MULTIMODAL ACTIVITY AGAINST PAIN” (ESTEVE PHARMACEUTICALS, S.A., priority 2016, published 2020).

Tests used:
[1] = molecular target: Human norepinephrine transporter (NET) (Homo sapiens, UniProt P23975); test: Binding assay to human norepinephrine transporter (NET), [3H]-Nisoxetin; conditions: human NET enriched membranes, 5 nM [3H]-Nisoxetin
Procedure: Binding Assay to Human Norepinephrine Transporter (NET).
Human norepinephrine transporter (NET) enriched membranes (5 μg) were incubated with 5 nM of radiolabeled [3H]-Nisoxetin in assay buffer containing 50 mM Tris-HCl, 120 mM NaCl, 5 mM KCl, pH 7.4. NSB (non specific binding) was measured by adding 10 μM of desipramine. The binding of the test compound was measured at five different concentrations. After 60 min incubation at 4° C., binding reaction was terminated by filtering through Multiscreen GF/C (Millipore) presoaked in 0.5% polyethyleneimine in Vacuum Manifold Station, followed by 3 washes with ice-cold filtration buffer containing 50 mM Tris-HCl, 0.9% NaCl, pH 7.4. Filter plates were dried at 60° C. for 1 hour and 30 μl of scintillation cocktail were added to each well before radioactivity reading. Readings were performed in a Trilux 1450 Microbeta radioactive counter (Perkin Elmer).

[2] = molecular target: Human α2δ-1 Subunit of Cav2.2 Calcium Channel (Homo sapiens, UniProt P54289); test: Human α2δ-1 subunit of Cav2.2 calcium channel assay, [3H]-Gabapentin binding; conditions: human α2δ-1 enriched membranes, 15 nM [3H]-Gabapentin
Human α2δ-1 Subunit of Cav2.2 Calcium Channel, sequence (P54289 25-1103): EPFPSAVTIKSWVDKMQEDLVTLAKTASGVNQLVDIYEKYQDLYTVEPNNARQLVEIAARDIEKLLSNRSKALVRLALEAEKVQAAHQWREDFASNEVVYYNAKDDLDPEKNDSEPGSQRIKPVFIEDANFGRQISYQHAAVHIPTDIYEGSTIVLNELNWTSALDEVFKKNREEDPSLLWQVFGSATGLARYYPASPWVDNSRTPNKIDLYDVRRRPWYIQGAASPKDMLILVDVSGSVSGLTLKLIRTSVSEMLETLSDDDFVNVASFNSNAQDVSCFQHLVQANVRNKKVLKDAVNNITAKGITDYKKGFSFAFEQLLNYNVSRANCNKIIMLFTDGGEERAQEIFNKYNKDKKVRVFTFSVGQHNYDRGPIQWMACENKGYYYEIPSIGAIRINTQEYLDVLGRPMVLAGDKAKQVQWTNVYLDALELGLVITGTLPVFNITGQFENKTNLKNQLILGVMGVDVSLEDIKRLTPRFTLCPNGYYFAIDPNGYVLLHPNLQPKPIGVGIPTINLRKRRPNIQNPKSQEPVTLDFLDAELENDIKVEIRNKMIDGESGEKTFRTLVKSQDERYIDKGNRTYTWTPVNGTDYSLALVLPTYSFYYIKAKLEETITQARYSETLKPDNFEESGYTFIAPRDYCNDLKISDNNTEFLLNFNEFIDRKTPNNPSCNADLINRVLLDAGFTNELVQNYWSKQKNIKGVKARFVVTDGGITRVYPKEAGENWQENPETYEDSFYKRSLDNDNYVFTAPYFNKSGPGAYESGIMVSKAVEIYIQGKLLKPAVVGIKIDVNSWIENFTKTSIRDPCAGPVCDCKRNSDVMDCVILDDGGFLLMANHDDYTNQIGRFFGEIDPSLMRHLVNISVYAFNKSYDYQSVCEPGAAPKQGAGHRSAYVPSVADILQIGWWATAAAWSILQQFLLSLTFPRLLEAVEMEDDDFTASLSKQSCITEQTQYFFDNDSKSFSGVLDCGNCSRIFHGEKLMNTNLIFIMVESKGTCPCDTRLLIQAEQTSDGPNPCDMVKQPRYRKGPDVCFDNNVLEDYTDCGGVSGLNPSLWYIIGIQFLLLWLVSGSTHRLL
Procedure: Human α2δ-1 Subunit of Cav2.2 Calcium Channel Assay
Human α2δ-1 enriched membranes (2.5 μg) were incubated with 15 nM of radiolabeled [3H]-Gabapentin in assay buffer containing Hepes-KOH 10 mM, pH 7.4. NSB (non specific binding) was measured by adding 10 μM pregabalin. The binding of the test compound was measured at five different concentrations. After 60 min incubation at 27° C., binding reaction was terminated by filtering through Multiscreen GF/C (Millipore) presoaked in 0.5% polyethyleneimine in Vacuum Manifold Station, followed by 3 washes with ice-cold filtration buffer containing 50 mM Tris-HCl, pH 7.4. Filter plates were dried at 60° C. for 1 hour and 30 μl of scintillation cocktail were added to each well before radioactivity reading. Readings were performed in a Trilux 1450 Microbeta radioactive counter (Perkin Elmer).

Human norepinephrine transporter (NET), sequence (P23975 whole entry): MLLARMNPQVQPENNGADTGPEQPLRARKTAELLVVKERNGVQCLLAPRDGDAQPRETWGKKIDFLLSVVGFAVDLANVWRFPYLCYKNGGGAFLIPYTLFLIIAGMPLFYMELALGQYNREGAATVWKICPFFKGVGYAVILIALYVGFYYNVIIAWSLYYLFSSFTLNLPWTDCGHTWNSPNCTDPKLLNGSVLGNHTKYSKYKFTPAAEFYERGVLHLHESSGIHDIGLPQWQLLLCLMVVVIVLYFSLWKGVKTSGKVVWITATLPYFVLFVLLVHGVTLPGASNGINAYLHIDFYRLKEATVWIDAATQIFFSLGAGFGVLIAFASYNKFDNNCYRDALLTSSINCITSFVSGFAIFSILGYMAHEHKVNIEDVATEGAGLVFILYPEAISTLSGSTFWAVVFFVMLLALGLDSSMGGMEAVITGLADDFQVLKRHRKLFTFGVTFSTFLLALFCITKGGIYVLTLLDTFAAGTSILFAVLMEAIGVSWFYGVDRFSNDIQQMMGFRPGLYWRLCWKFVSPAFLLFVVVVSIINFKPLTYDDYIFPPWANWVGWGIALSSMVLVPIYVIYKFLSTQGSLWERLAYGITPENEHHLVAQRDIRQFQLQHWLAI

Structure (SMILES) | Ki [1] | Ki [2]
Cc1nnc(N(C)C)c2nn(-c3cccc(OC(CCNCC(F)F)c4ccccc4)c3)c(C)c12 (stereo not shown) [Example 55, 2-(3-(3-((2,2-difluoroethyl)amino)-1-phenylpropoxy)phenyl)-N,N,3,4-tetramethyl-2H-pyrazolo[3,4-d]pyridazin-7-amine] | 500 to 1000 nM | 500 to 5000 nM
CNCCC(Oc1cccc(-n2nc3c(N(C)C)nnc(C)c3c2C)c1)c1nccs1 (stereo not shown) [Example 34, N,N,3,4-Tetramethyl-2-(3-(3-(methylamino)-1-(thiazol-2-yl)propoxy)phenyl)-2H-pyrazolo[3,4-d]pyridazin-7-amine] | ≥ 1000 nM | < 500 nM
CCNCCC(Oc1cccc(-n2nc3c(N(C)C)nnc(C)c3c2C)c1)c1cccc(F)c1 (stereo not shown) [Example 17, 2-(3-(3-(ethylamino)-1-(3-fluorophenyl)propoxy)phenyl)-N,N,3,4-tetramethyl-2H-pyrazolo[3,4-d]pyridazin-7-amine] | ≥ 1000 nM | 500 to 5000 nM
Cc1nnc(N(C)C)c2nn(-c3cccc(OC4CNCc5ccccc54)c3)c(C)c12 (stereo not shown) [Example 16, N,N,3,4-tetramethyl-2-(3-((1,2,3,4-tetrahydroisoquinolin-4-yl)oxy)phenyl)-2H-pyrazolo[3,4-d]pyridazin-7-amine] | ≥ 1000 nM | 500 to 5000 nM
CNCCCC(Oc1cccc(-n2nc3c(N(C)C)nnc(C)c3c2C)c1)c1ccccc1 (stereo not shown) [Example 6, N,N,3,4-tetramethyl-2-(3-(4-(methylamino)-1-phenylbutoxy)phenyl)-2H-pyrazolo[3,4-d]pyridazin-7-amine] | 100 to 500 nM | 500 to 5000 nM
CNCCC(Oc1cccc(-n2nc3c(N4CC(OC)C4)nnc(C)c3c2C)c1)c1ccccc1F (stereo not shown) [Example 33, 3-(2-fluorophenyl)-3-(3-(7-(3-methoxyazetidin-1-yl)-3,4-dimethyl-2H-pyrazolo[3,4-d]pyridazin-2-yl)phenoxy)-N-methylpropan-1-amine] | 500 to 1000 nM | 500 to 5000 nM
Cc1nnc(N(C)C)c2nn(-c3cccc(OC(CCN)c4cccc(F)c4)c3)c(C)c12 (stereo not shown) [Example 21, 2-(3-(3-amino-1-(3-fluorophenyl)propoxy)phenyl)-N,N,3,4-tetramethyl-2H-pyrazolo[3,4-d]pyridazin-7-amine] | 100 to 500 nM | 500 to 5000 nM
CNCCC(Oc1cccc(-n2nc3c(N)nnc(C)c3c2C)c1)c1ccccc1F (stereo not shown) [Example 26, 2-(3-(1-(2-fluorophenyl)-3-(methylamino)propoxy)phenyl)-3,4-dimethyl-2H-pyrazolo[3,4-d]pyridazin-7-amine] | 100 to 500 nM | 500 to 5000 nM
CNCCC(Oc1cccc(-n2c(C)c3c(C)nnc(C)c3c2C)c1)c1ccccc1F (stereo not shown) [Example 66, 3-(2-fluorophenyl)-N-methyl-3-(3-(1,4,5,7-tetramethyl-6H-pyrrolo[3,4-d]pyridazin-6-yl)phenoxy)propan-1-amine] | 500 to 1000 nM | 500 to 5000 nM
CNCCC(Oc1cccc(-n2nc3c(N(C)C)nnc(C)c3c2C)c1)c1cccc(C(N)=O)c1 (stereo not shown) [Example 56, 3-(1-(3-(7-(Dimethylamino)-3,4-dimethyl-2H-pyrazolo[3,4-d]pyridazin-2-yl)phenoxy)-3-(methylamino)propyl)benzamide] | 100 to 500 nM | 500 to 5000 nM
CNCC(Oc1cccc(-n2nc3c(N(C)C)nnc(C)c3c2C)c1)c1cccnc1 (stereo not shown) [Example 45, N,N,3,4-tetramethyl-2-(3-(2-(methylamino)-1-(pyridin-3-yl)ethoxy)phenyl)-2H-pyrazolo[3,4-d]pyridazin-7-amine] | ≥ 1000 nM | 500 to 5000 nM

Other lines, results leading:

Ki [1] | Ki [2] | Structure (SMILES)
100 to 500 nM | < 500 nM | CNCC[C@H](Oc1cccc(-n2nc3c(N(C)C)nnc(C)c3c2C)c1)c1cccnc1 [Example 64, (S)-N,N,3,4-tetramethyl-2-(3-(3-(methylamino)-1-(pyridin-3-yl)propoxy)phenyl)-2H-pyrazolo[3,4-d]pyridazin-7-amine]
< 100 nM | 500 to 5000 nM | CNCCC(Oc1cccc(-n2nc3c(N(C)C)nnc(C)c3c2C)c1)c1cccc(C#N)c1 (stereo not shown) [Example 11, 3-(1-(3-(7-(dimethylamino)-3,4-dimethyl-2H-pyrazolo[3,4-d]pyridazin-2-yl)phenoxy)-3-(methylamino)propyl)benzonitrile]
100 to 500 nM | 500 to 5000 nM | CNCCC(Cc1ccccc1)Oc1cccc(-n2nc3c(N(C)C)nnc(C)c3c2C)c1 (stereo not shown) [Example 38, N,N,3,4-tetramethyl-2-(3-((4-(methylamino)-1-phenylbutan-2-yl)oxy)phenyl)-2H-pyrazolo[3,4-d]pyridazin-7-amine]
< 100 nM | 500 to 5000 nM | CNCCC(Oc1cccc(-n2nc3c(N)nnc(C)c3c2C)c1)c1ccccc1 (stereo not shown) [Example 27, 3,4-dimethyl-2-(3-(3-(methylamino)-1-phenylpropoxy)phenyl)-2H-pyrazolo[3,4-d]pyridazin-7-amine]
< 100 nM | 500 to 5000 nM | CNCCC(Oc1cccc(-n2nc3c(NC)nnc(C)c3c2C)c1)c1ccccc1F (stereo not shown) [Example 22, 2-(3-(1-(2-fluorophenyl)-3-(methylamino)propoxy)phenyl)-N,3,4-trimethyl-2H-pyrazolo[3,4-d]pyridazin-7-amine]
100 to 500 nM | 500 to 5000 nM | Cc1nnc(N(C)C)c2nn(-c3cccc(OC(CN(C)C)c4ccccc4)c3)c(C)c12 (stereo not shown) [Example 37, 2-(3-(2-(dimethylamino)-1-phenylethoxy)phenyl)-N,N,3,4-tetramethyl-2H-pyrazolo[3,4-d]pyridazin-7-amine]
100 to 500 nM | 500 to 5000 nM | CNCCC(Oc1cccc(-n2nc3c(N(C)C)nnc(C)c3c2C)c1)c1ccccn1 (stereo not shown) [Example 9, N,N,3,4-tetramethyl-2-(3-(3-(methylamino)-1-(pyridin-2-yl)propoxy)phenyl)-2H-pyrazolo[3,4-d]pyridazin-7-amine]
< 100 nM | 500 to 5000 nM | CNC1(CC(Oc2cccc(-n3nc4c(N(C)C)nnc(C)c4c3C)c2)c2ccccc2)CC1 (stereo not shown) [Example 49, N,N,3,4-tetramethyl-2-(3-(2-(1-(methylamino)cyclopropyl)-1-phenylethoxy)phenyl)-2H-pyrazolo[3,4-d]pyridazin-7-amine]
< 100 nM | 500 to 5000 nM | CNCC[C@H](Oc1cccc(-n2nc3c(N(C)C)nnc(C)c3c2C)c1)c1ccccc1F [Example 63, (S)-2-(3-(1-(2-fluorophenyl)-3-(methylamino)propoxy)phenyl)-N,N,3,4-tetramethyl-2H-pyrazolo[3,4-d]pyridazin-7-amine]
< 100 nM | 500 to 5000 nM | CNC(COc1cccc(-n2nc3c(N(C)C)nnc(C)c3c2C)c1)c1ccccc1 (stereo not shown) [Example 15, N,N,3,4-tetramethyl-2-(3-(2-(methylamino)-2-phenylethoxy)phenyl)-2H-pyrazolo[3,4-d]pyridazin-7-amine]
100 to 500 nM | < 500 nM | CNCC[C@@H](Oc1cccc(-n2c(C)c3c(C)nnc(C)c3c2C)c1)c1cccc(F)c1 [Example 69, (R)-3-(3-fluorophenyl)-N-methyl-3-(3-(1,4,5,7-tetramethyl-6H-pyrrolo[3,4-d]pyridazin-6-yl)phenoxy)propan-1-amine]
< 100 nM | 500 to 5000 nM | CNCC[C@H](Oc1cccc(-n2nc3c(N(C)C)nnc(C)c3c2C)c1)c1ccccc1 [Example 58, (S)-N,N,3,4-Tetramethyl-2-(3-(3-(methylamino)-1-phenylpropoxy)phenyl)-2H-pyrazolo[3,4-d]pyridazin-7-amine]
